GI50 and TGI data for 28 compounds are collected here from PubChem BioAssay (NCI).

Experiment in all cases: NCI tumour cell line growth inhibition, 48 h
Test [1] concerns UACC-257 melanoma.
The test system of test [2] is SK-MEL-28 melanoma.
The test system of test [3] is MOLT-4 leukemia.
The subject of test [4] is 786-0 renal.
Test [5] relates to T-47D breast.
Test [6] deals with MDA-MB-231 breast.
For test [7], the system named is NCI-H23 lung.
The subject of test [8] is SNB-75 CNS.
In test [9] the test system is OVCAR-8 ovarian.
For test [10], the system named is HOP-92 NSCLC.

Values joined by “and” are separate entries in the source; they are usually repeats but may differ in a detail not shown here. Equal values may be shown once.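 1) Cells in 96-well plates. 2) Compound, 48 h, 5 concentrations. 3) Linear interpolation between surrounding doses. 4) Unreached endpoint = highest concentration. GI50 marks 50% less growth. TGI marks complete inhibition of growth.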 Some results are limits rather than exact numbers.

With `ClCC#CCSc1ncnc2c1ncn2CC#CCCl`, the GI50 was 1.36 µM in [1]; 1.61 µM in test [2]; 2.68 µM in [3]; 1.66 µM in test [4]; 1.33 µM in test [5]; 1.5 µM in test [6]. For the same compound, the GI50 in [7] is 1.49 µM; in test [8], 1.42 µM; in test [9], 1.78 µM. The TGI in [1] is 3.49 µM; in test [2] it was 3.14 µM; in test [3], 14.1 µM; in [4], 3.41 µM; in test [5], 2.68 µM; in [6], 3.55 µM. Besides, the TGI in [7] worked out at 3.46 µM; in [8], 3.06 µM; in test [9], 5.24 µM.

As to `CC(=O)O[C@H]1C=CC23OC(=O)[C@]1(C)[C@H]2[C@H](C(=O)O)C12CC(=O)[C@@](CO)(CC[C@H]13)C2`, the TGI in test [1], in [2], in test [3], in test [4], in test [10] and in test [7] was greater than 100 µM in each case. Further, in [9], the TGI is greater than 100 µM.

Turning to `O=C(/C(=C/c1ccccc1)c1ccccc1)N1c2ccccc2CC1c1c[nH]c2ccccc12` (stereo not given), the TGI in [1] was greater than 100 µM; in [2], greater than 100 µM; in [3], 49.7 µM; in [4], greater than 100 µM; in [10], greater than 100 µM; in test [7], greater than 100 µM. Further, the TGI in [8] and in test [9] was greater than 100 µM in each case.

`C#CCN(C)C(=O)N(CC#C)N=O`: the TGI in test [1], in test [2], in [3], in test [4], in test [10] and in test [7] was greater than 100 µM in each case. The TGI in test [8] and in [9] was greater than 100 µM throughout.

With `COC(=O)C1CC(C(=O)OC)c2nc3cc(C)c(C)cc3nc21` (stereo not given), the TGI in [1], in test [2], in [3], in [4], in test [10] and in test [7] was greater than 100 µM throughout. In addition, the TGI in test [8] and in test [9] was greater than 100 µM each time.

As to `C[N+](C)(C)CC1CCCC/C1=N\O` (stereo not given), the TGI in test [1], in test [2], in [3], in [4], in [10] and in test [7] was greater than 100 µM in each case. In [9], this compound yielded a TGI greater than 100 µM.

As to `C[n+]1c(N)n(C(=O)OCc2ccccc2)c(=O)c2c1ncn2C(=O)OCc1ccccc1`, the TGI in test [1] was greater than 100 µM; in test [2], greater than 100 µM; in test [3], greater than 100 µM; in test [4], greater than 100 µM; in test [7], greater than 100 µM; in test [8] it was 65.9 µM. The same compound showed a TGI in test [9] greater than 100 µM.

For `COc1cc([C@@H]2c3cc4c(cc3C[C@H]3COC(=O)[C@@H]32)OCO4)cc2c1OCO2`, the TGI in test [2] is greater than 100 µM; in test [3], greater than 100 µM; in [4], greater than 59.8 µM; in test [6], less than 0.0224 µM; in test [8], greater than 100 µM.

Take `Cn1ccnc1C[N-]Cc1nccn1C.O=[N+]([O-])[O-].O=[N+]([O-])[O-].[Cu+2]`: the GI50 in [2], in [3], in test [4], in [7], in [8] and in test [9] was greater than 100 µM each time. The TGI in test [2], in [3], in test [4], in test [7], in [8] and in test [9] was greater than 100 µM in each case.

Consider `CN(C)CCNc1nc(-c2cccs2)cc(-c2cccs2)n1`, for which the TGI in [1] was 24.2 µM; in [2], 30 µM; in test [3], 13.4 µM; in [4] it was 30.4 µM; in test [10] it was 8.7 µM; in [7], 25.7 µM. Also, the values for the TGI in [8] and in [9] were 68.2 µM and 21.7 µM, respectively.

Regarding `C[N+](C)([O-])CCCNc1ccnc2cccc([N+](=O)[O-])c12`, the TGI is greater than 100 µM in test [1]; greater than 100 µM in test [2]; 67.6 µM in test [3]; greater than 100 µM in test [4]; greater than 100 µM in [5]; greater than 100 µM in test [6]. The TGI in test [7], in test [8] and in test [9] was greater than 100 µM in each case.

As to `COc1ccc(C2=NOP(c3ccccc3)(c3ccccc3)(c3ccccc3)C2)cc1`, the TGI in test [1] is 99.2 µM; in [2], greater than 100 µM; in test [3], 41.2 µM; in test [4], greater than 53.4 µM; in test [10] it was 53.2 µM; in [7] it was greater than 72.5 µM. Also, the TGI is greater than 89.4 µM in test [8] and greater than 92.7 µM in [9].

As to `Cc1ccc(NC(=O)CCC(=O)C(C#N)c2ccccc2)cc1C` (stereo not given), the TGI in test [1], in test [3], in [4], in test [10], in [7] and in test [9] was greater than 100 µM throughout.

For the compound `COc1ccc2nc3cccc(C(=O)NCCN(C)C)c3nc2c1`, the TGI in test [1] is 7.74 µM; in test [2], 4.88 µM; in [3], 1.19 µM; in test [4], greater than 22.2 µM; in test [10], greater than 100 µM; in test [7], 3.41 µM. Further, the TGI in test [8] was 21.6 µM.

For the compound `CCOC(=O)/N=c1/nc(N(C)C)ss1`, the TGI in test [1], in test [2], in test [3], in test [4], in test [10] and in test [7] was greater than 100 µM each time. In addition, the TGI in test [8] and in test [9] was greater than 100 µM throughout.

Consider `NCP(=O)(O)OCC(=O)O`, for which the TGI in test [1], in test [2], in test [3], in test [4], in test [10] and in test [7] was greater than 100 µM in each case. Moreover, the TGI in [8] and in test [9] was greater than 100 µM each time.

`Nc1ccc(C(=O)N/C(=C\c2cccc([N+](=O)[O-])c2)c2nc3c4c(ccc3[nH]2)C(=O)c2ccccc2C4=O)cc1`: the TGI in [1] is greater than 100 µM; in test [2], greater than 100 µM; in test [3] it was greater than 100 µM; in [4], greater than 100 µM; in test [10], 93.4 µM; in [7], greater than 100 µM. The TGI in [8] was 17.8 µM; in [9], greater than 100 µM.

In the case of `COc1c(N2CCN(Cn3c(O)c(N=NC(=O)c4ccncc4)c4cc(F)ccc43)C(C)C2)c(F)cc2c(=O)c(C(=O)O)cn(C3CC3)c12` (stereo not given), the GI50 in [1] is greater than 50 µM; in [2], greater than 50 µM; in test [3] it was 39.1 µM; in [4], 22.3 µM; in test [10], 22.7 µM; in [6], 8.31 µM. The GI50 in [7] was 16.7 µM; in test [8] it was greater than 50 µM; in test [9], 34.8 µM. The TGI is greater than 50 µM in test [1]; greater than 50 µM in test [2]; greater than 50 µM in test [3]; greater than 50 µM in test [4]; greater than 50 µM in test [10]; 27.7 µM in [6]. Besides, the TGI in test [7], in test [8] and in test [9] was greater than 50 µM in each case.

For `Nc1c(-c2nc3ccccc3[nH]2)sc(=S)n1-c1ccc(Cl)cc1`, the TGI in [1] was 65.6 µM; in test [2] it was greater than 100 µM; in test [3] it was greater than 100 µM; in test [4] it was 36.7 µM; in test [7], 81.8 µM; in test [8] it was 47.6 µM. This compound also had a TGI in test [9] of 54.5 µM.

Regarding `CCOC(=O)NC(=O)c1c[nH]c(=O)[nH]c1=O`, the TGI in test [1], in test [2], in test [3], in test [4], in test [10] and in test [7] was greater than 100 µM throughout. Besides, the TGI in test [8] and in [9] was greater than 100 µM in each case.

For the compound `Cc1cc(O)c(C(c2ccncc2)c2c(O)cc(C)[nH]c2=O)c(=O)[nH]1`, the TGI in test [1], in test [2], in test [3], in test [4], in test [5] and in test [6] was greater than 100 µM in each case. In addition, the TGI in test [7] and in test [9] was greater than 100 µM throughout.

`C1C[OH+]CC[OH+]CC[OH+]CC[OH+]CC[OH+]CC[OH+]1.[Cl-].[Nb+5]`: the GI50 in [1], in test [2], in [3], in [4], in test [10] and in [7] was greater than 100 µM throughout. Also, the GI50 in test [8] is 39.6 µM; in [9], greater than 100 µM. In addition, the TGI in [1], in [2], in [3], in test [4], in [10] and in test [7] was greater than 100 µM throughout. Further, the TGI in [8] and in test [9] was greater than 100 µM each time.

In the case of `CN(C)CC1CCCC/C1=N/OC(=O)c1ccc(Cl)c(Cl)c1` (stereo not given), the TGI in test [1], in test [2], in test [4], in test [10], in test [7] and in test [8] was greater than 100 µM in each case. Further, the TGI in test [9] was greater than 100 µM.

As to `COc1cc(C2c3cc4c(cc3[C@@H](Nc3ccc(N)cc3)C3COC(=O)[C@H]23)OCO4)cc(OC)c1O` (stereo not given in full), the TGI in test [1] was 28 µM; in test [2], 33.9 µM; in [3], 0.8 µM and 0.825 µM; in [4], 4.43 µM; in test [6] it was 34.8 µM; in test [7], 4.85 µM. Also, in test [9], the TGI is 15.8 µM. In addition, the GI50 in test [3] is 0.175 µM and 0.0292 µM; in [4], 0.514 µM; in [10] it was 0.495 µM; in [7], 0.415 µM; in test [8], 0.347 µM; in [9], 0.87 µM.

With `Nc1nc(N)c(-c2ccccc2)c(CCC(=O)Nc2ccc(Cl)cc2)n1`, the TGI in test [1], in test [2], in test [3], in [4], in test [10] and in test [7] was greater than 100 µM each time. Moreover, the TGI in test [8] and in [9] was greater than 100 µM in each case.

For the compound `CC1=C(C(=O)Nc2ccccc2)C(c2ccc(C(C)C)cc2)C(C(=O)Nc2ccccc2)=C(C)N1`, the TGI is greater than 63.7 µM in test [2]; 57.5 µM in [3]; 30.2 µM in test [4]; 32.5 µM in test [10]; greater than 58.5 µM in [7]; 99.3 µM in test [8]. Moreover, the TGI in [9] is greater than 66.3 µM.

With `CC(C)(C)OC(=O)N1N=NC2C3OC(CC3=O)C21` (stereo not given), the TGI in test [1], in test [2], in test [3], in test [4], in test [10] and in test [7] was greater than 100 µM in each case. Also, the TGI in test [8] and in test [9] was greater than 100 µM throughout.

`COc1ccc(C(=O)O/N=C2/CCC/C2=C\c2ccccc2)cc1`: the TGI in test [1], in test [2], in test [3], in test [4], in test [10] and in test [7] was greater than 100 µM in each case. Moreover, the TGI in test [8] was greater than 92.9 µM; in test [9] it was greater than 100 µM.
